pIC50: −log10 of the molar value. Where “and” joins values, the source holds several entries; their conditions need not be identical. Equal entries are not always repeated. Where two headings read alike, the source gives them in different places.
Legend:
[1] = target: T1, Agg-1 (Homo sapiens, UniProt O75173); test: Agg-1 FRET assay; type: biochemical; settings: for inhibition at 33 µM: @ 33000 nM; for inhibition at 7.4 µM: @ 7400 nM; for inhibition at 0.8 µM: @ 800 nM
T1 sequence (O75173 213-837): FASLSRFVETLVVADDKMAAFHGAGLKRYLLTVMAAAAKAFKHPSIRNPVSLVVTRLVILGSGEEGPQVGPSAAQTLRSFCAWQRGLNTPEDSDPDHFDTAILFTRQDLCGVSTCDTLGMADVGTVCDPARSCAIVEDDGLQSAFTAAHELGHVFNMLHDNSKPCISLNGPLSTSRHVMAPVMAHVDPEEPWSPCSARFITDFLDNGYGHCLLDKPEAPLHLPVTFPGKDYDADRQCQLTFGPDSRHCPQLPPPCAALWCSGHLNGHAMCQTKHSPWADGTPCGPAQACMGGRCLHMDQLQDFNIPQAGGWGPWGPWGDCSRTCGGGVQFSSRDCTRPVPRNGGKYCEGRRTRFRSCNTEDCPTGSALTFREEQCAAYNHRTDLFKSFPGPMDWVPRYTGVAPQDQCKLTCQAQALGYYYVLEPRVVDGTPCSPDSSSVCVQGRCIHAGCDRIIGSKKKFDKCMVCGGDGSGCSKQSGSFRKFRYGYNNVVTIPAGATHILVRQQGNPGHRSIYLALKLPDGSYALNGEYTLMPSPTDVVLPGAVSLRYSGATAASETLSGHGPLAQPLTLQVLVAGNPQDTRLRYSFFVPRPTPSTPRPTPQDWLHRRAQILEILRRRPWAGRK
Description: The Agg-1/Agg-2 FRET data for N-[(8-hydroxyquinolin-2-yl)(phenyl)methyl]-2-phenoxyacetamide and 2-{[(phenoxyacetyl)amino](phenyl)methyl}quinolin-8-yl phenoxyacetate is presented in Table 1.

[2] = target: T2, recombinant human Aggrecanase-2 Agg2-Phe628 (Homo sapiens, UniProt Q9UNA0); test: Aggrecanase 2 in vitro enzyme assay (Agg-2 FRET, quenched fluorescent peptide substrate); type: biochemical; design: purified recombinant human Aggrecanase-2 Agg2-Phe628 (MW=41,737); This is a truncated form of full-length human aggrecanase-2; made in house; host or cells: CHO cells
T2 sequence (Q9UNA0 262-628 limits assumed): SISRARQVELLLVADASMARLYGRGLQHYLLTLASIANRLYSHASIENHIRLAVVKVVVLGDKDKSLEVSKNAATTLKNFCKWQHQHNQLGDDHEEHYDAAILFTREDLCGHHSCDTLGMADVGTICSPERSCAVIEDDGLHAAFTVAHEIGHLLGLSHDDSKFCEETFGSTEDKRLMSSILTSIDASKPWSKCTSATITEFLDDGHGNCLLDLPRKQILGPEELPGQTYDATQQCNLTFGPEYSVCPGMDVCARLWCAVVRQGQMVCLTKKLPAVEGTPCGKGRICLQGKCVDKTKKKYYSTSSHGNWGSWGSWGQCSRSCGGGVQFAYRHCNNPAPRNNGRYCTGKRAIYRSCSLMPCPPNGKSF
In short: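 Continuous FRET assay with purified truncated human Aggrecanase-2 Agg2-Phe628 (CHO-expressed, 0.5 μg/ml final) and brevican-derived Abz/Dnp peptide (25 μM final) in 50 mM HEPES pH 7.5, 100 mM NaCl, 5 mM CaCl2, 0.1% CHAPS, 5% glycerol. Enzyme preincubated with compound before substrate; fluorescence (ex 340/em 420 nm) followed kinetically 40 min at 30 °C.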

[3] = read-out: Agg-2 FRET Median IC50

CC(C)c1ccc(C(NC(=O)COc2ccccc2)c2cc(Cl)c3cccnc3c2O)cc1 (stereo not shown) [N-[(5-chloro-8-hydroxyquinolin-7-yl)(4-isopropylphenyl)methyl]-2-phenoxyacetamide]
inhibition at 33 µM ([1]; read-out: Agg1 %): 47% | inhibition at […] ([2]; @ 2500 nM): 45%

CN(C)c1ccc(C(NC(=O)COc2ccccc2)c2cc(Cl)c3cccnc3c2O)cc1 (stereo not shown) [Example 134, N-{(5-chloro-8-hydroxyquinolin-7-yl)[4-(dimethylamino)phenyl]methyl}-2-phenoxyacetamide]
inhibition at […] ([1]; @ 2500 nM, read-out: Agg1 %): 54% | pIC50 ([2]; read-out: Agg2 IC50): 5.78

O=C(COc1ccccc1)NC(c1ccccc1[N+](=O)[O-])c1cc(Cl)c2cccnc2c1O (stereo not shown) [N-[(5-chloro-8-hydroxyquinolin-7-yl)(2-nitrophenyl)methyl]-2-phenoxyacetamide]
inhibition at 7.4 µM ([1]; read-out: Agg1 %): 48% | inhibition at […] ([2]; @ 1200 nM): 58% | pIC50 [2, 3]: 5.92

CCC/C=C/C(NC(=O)COc1ccccc1)c1cc(Cl)c2cccnc2c1O (stereo not shown) [N-[(2E)-1-(5-chloro-8-hydroxyquinolin-7-yl)hex-2-en-1-yl]-2-phenoxyacetamide]
inhibition at 0.8 µM ([1]; read-out: Agg1 %): 30% | inhibition at […] ([2]; @ 2500 nM): 47%

O=C(COc1ccccc1)NC(c1cn2c(n1)COCC2)c1cc(Cl)c2cccnc2c1O (stereo not shown) [Example 178, N-[(5-chloro-8-hydroxyquinolin-7-yl)(5,6-dihydro-8H-imidazo[2,1-c][1,4]oxazin-2-yl)methyl]-2-phenoxyacetamide]
pIC50 ([1]; read-out: Agg1 IC50): < 4.70 | pIC50 ([2]; read-out: Agg2 IC50): 5.21

CC(C)(C)c1csc(-c2ccc(C(NC(=O)COc3ccccc3)c3cc(Cl)c4cccnc4c3O)cc2)n1 (stereo not shown) [Example 146, N-[[4-(4-tert-butyl-1,3-thiazol-2-yl)phenyl](5-chloro-8-hydroxyquinolin-7-yl)methyl]-2-phenoxyacetamide]
inhibition at 66.7 µM ([1]; @ 66700 nM, read-out: Agg1 %): 42% | inhibition at 11 µM ([2]; @ 11000 nM): 49%

CCCCCc1ccc(OCC(=O)NC(c2ccccc2Cl)c2cc(Cl)c3cccnc3c2O)cc1 (stereo not shown) [N-[(5-chloro-8-hydroxyquinolin-7-yl)(2-chlorophenyl)methyl]-2-(4-pentylphenoxy)acetamide]
inhibition at 33 µM ([1]; read-out: Agg1 %): 44% | inhibition at 22 µM ([2]; @ 22000 nM, read-out: Agg2 %): 50%

O=C(Cc1ccccc1)NC(c1ccccc1Cl)c1cc(Cl)c2cccnc2c1O (stereo not shown) [N-[(5-chloro-8-hydroxyquinolin-7-yl)(2-chlorophenyl)methyl]-2-phenylacetamide]
inhibition at […] ([1]; @ 1200 nM, read-out: Agg1 %): 29% | pIC50 ([2]; read-out: Agg2 IC50): 5.81 | pIC50 [2, 3]: 5.81

CN(C)CC(=O)Nc1cccc(C(NC(=O)COc2ccccc2)c2cc(Cl)c3cccnc3c2O)c1 (stereo not shown) [Example 206, N-(3-{(5-chloro-8-hydroxyquinolin-7-yl)[(phenoxyacetyl)amino]methyl}phenyl)-N2,N2-dimethylglycinamide]
pIC50 ([1]; read-out: Agg1 IC50): 4.17 to 4.66 | pIC50 ([2]; read-out: Agg2 IC50): 5.54

Cc1ccc(-c2cccc(C(Cc3cc(Cl)c4cccnc4c3O)NC(=O)COCc3ccccc3)c2)s1 (stereo not shown)
inhibition at 66.7 µM ([1]; % inhibition @ 66.7 μM, read-out: Agg-1 IC50 (μM) or % Inhibition): 48% | inhibition at 22 µM ([2]; read-out: Agg-2 IC50 (μM) or % Inhibition): 56%

O=C(CNCc1ccc2c(c1)OCO2)NC(c1ccccc1)c1cc(Cl)c2cccnc2c1O (stereo not shown) [Example 226, N^2-(1,3-benzodioxol-5-ylmethyl)-N-[(5-chloro-8-hydroxyquinolin-7-yl)(phenyl)methyl]glycinamide]
pIC50 ([1]; read-out: Agg1 IC50): < 4.96 | pIC50 ([2]; read-out: Agg2 IC50): 5.56 | pIC50 [2, 3]: 5.56

O=C(COc1ccccc1)N[C@@H](c1ccccc1Cl)c1cc(Cl)c2cccnc2c1O [N-[(R)-(5-chloro-8-hydroxyquinolin-7-yl)(2-chlorophenyl)methyl]-2-phenoxyacetamide]
inhibition at 22.2 µM ([1]; @ 22200 nM, read-out: Agg1 %): 49% | pIC50 ([2]; read-out: Agg2 IC50): 6.01 | pIC50 [2, 3]: 6.01 and 5.91

Cn1cc(C(NC(=O)COc2ccccc2)c2cc(Cl)c3cccnc3c2O)c2ccccc21 (stereo not shown) [N-[(5-chloro-8-hydroxyquinolin-7-yl)(1-methyl-1H-indol-3-yl)methyl]-2-phenoxyacetamide]
inhibition at 11 µM ([1]; @ 11000 nM, read-out: Agg1 %): 46% | inhibition at […] ([2]; @ 2500 nM): 53%

O=C(COc1ccccc1)NC(c1ccccc1)c1cc(-n2cccc2)c2cccnc2c1O (stereo not shown) [N-[[8-hydroxy-5-(1H-pyrrol-1-yl)quinolin-7-yl](phenyl)methyl]-2-phenoxyacetamide]
inhibition at 200 µM ([1]; @ 200000 nM, read-out: Agg1 %): 54% | pIC50 ([2]; read-out: Agg2 IC50): 5.78 | pIC50 [2, 3]: 5.78

O=C(COc1ccccc1)NC(c1cccc([N+](=O)[O-])c1)c1cc(Cl)c2cccnc2c1O (stereo not shown) [N-[(5-chloro-8-hydroxyquinolin-7-yl)(3-nitrophenyl)methyl]-2-phenoxyacetamide]
inhibition at 22 µM ([1]; @ 22000 nM, read-out: Agg1 %): 53% | pIC50 ([2]; read-out: Agg2 IC50): 5.91 | pIC50 [2, 3]: 5.91 and 6.31

O=C(COc1ccccc1)NC(c1cc(Cl)c2cccnc2c1O)c1cccc2[nH]ccc12 (stereo not shown) [N-[(5-chloro-8-hydroxyquinolin-7-yl)(1H-indol-4-yl)methyl]-2-phenoxyacetamide]
inhibition at 0.8 µM ([1]; read-out: Agg1 %): 41% | pIC50 ([2]; read-out: Agg2 IC50): 5.68 | pIC50 [2, 3]: 5.68

Nc1cccc(C(NC(=O)COc2ccccc2)c2cc(Cl)c3cccnc3c2O)c1 (stereo not shown) [Example 202, N-[(3-aminophenyl)(5-chloro-8-hydroxyquinolin-7-yl)methyl]-2-phenoxyacetamide]
pIC50 ([1]; read-out: Agg1 IC50): < 5.70 | pIC50 ([2]; read-out: Agg2 IC50): 5.34 | pIC50 [2, 3]: 5.34 and 5.36

O=C(COc1ccccc1)NC(c1ccccc1)c1ccc2cccc(O)c2n1 (stereo not shown) [Example 276, N-[(8-hydroxyquinolin-2-yl)(phenyl)methyl]-2-phenoxyacetamide]
pIC50 ([1]; read-out: FRET IC50 Agg-1): 4.82 | inhibition at 200 µM ([2]; @ 200 (μM), read-out: Agg-2 FRET % (printed in FRET IC50 column)): 32%

Cc1ccc2occ(C(NC(=O)COc3ccccc3)c3cc(Cl)c4cccnc4c3O)c(=O)c2c1 (stereo not shown) [N-[(5-chloro-8-hydroxyquinolin-7-yl)(6-methyl-4-oxo-4H-chromen-3-yl)methyl]-2-phenoxyacetamide]
inhibition at 7.4 µM ([1]; read-out: Agg1 %): 43% | pIC50 ([2]; read-out: Agg2 IC50): 5.92

— patent US20080269213A1, “8-Hydroxyquinoline compounds and methods thereof” (Wyeth, priority 2006, published 2008)
